Laboratory results reported in US9522882B2, “Strigolactam derivatives as plant growth regulating compounds” (Syngenta Participations AG, priority 2011, dated 2016).

What was measured:
[1] = test system: Orobanche cumana Wallr. seeds; test: Orobanche cumana seed germination test on glass fiber filter paper in petri dishes; format: in vivo; conditions: mean, n = 5 × 100 seeds; for Germination %* at concentration of 0.001 mg I^−1 / Germination %* at concentration of 0.01 mg I^−1 / Germination %* at concentration of 0.1 mg I^−1: preconditioned Orobanche cumana seeds of lot IN153, race F
Experimental: The effect of compounds of Formula (I) on germination of Orobanche cumana Wallr. seeds was evaluated on glass fiber filter paper (GFFP) in petri dishes. Seeds were preconditioned at moisture and suitable temperature to become responsive to the specific chemical germination stimulants.
Test compounds were dissolved in DMSO (10 000 mg l^−1) and stored at room temperature in a desiccators with desiccants. The stock solutions were dissolved with deionised water to the appropriate final test concentration.
Seeds of O. cumana race ‘F’ were collected from sunflower fields in Manzanilla (Seville, Spain) in 2006 (seed lot 1N146) and 2008 (seed lot 1N153) and stored at room temperature. To separate seeds from heavy organic debris, a modified sucrose floatation technique as described by Hartman & Tanimonure (Plant Disease (1991), 75, p. 494) was applied. Seeds were filled into a separation funnel and stirred in water. When seeds floated to the surface, the water fraction containing heavy debris was discarded. Seeds were re-suspended in 2.5M sucrose solution (specific gravity of 1.20) and heavy debris was allowed to settle down for 60 min. After removing debris, seeds were disinfected in 1% sodium hypochlorite solution and 0.025% (v/v) Tween 20 for 2 min. The seeds were decanted onto two layers of cheesecloth, rinsed with sterile deionised water and re-suspended in sterile deionised water. Two ml of the seed suspension containing approximately 150-400 seeds were spread evenly on two layers of sterile glass fiber filter paper disc ([…]) in Petri dishes (Ø9 cm). After wetting the discs with 3 ml sterile deionised water, petri dishes were sealed with parafilm. Seeds were incubated for 10 days at 20° C. in the dark for seed conditioning. The upper disc with conditioned seeds was briefly dried, transferred to a petri dish lined with a dry GFFP disc, and wetted with 6 ml of the appropriate test solution. The compounds of Formula (I) were tested at concentrations of 0.001, 0.01, and 0.1 mg l^−1. The strigolactone analogue GR24 (commercially available as a mixture of isomers) was included as positive control and 0.001% DMSO as negative control. All treatments were tested in five replicates. Seeds were re-incubated at 20° C. in the dark and examined for germination 10 days later. The radicles of germinated seeds were stained for 5 min with blue ink (MIGROS, Switzerland) in 5% acetic acid according to Long et al. (Seed Science Research (2008), 18, p. 125). After staining, seeds were scanned using a flatbed scanner with an optical resolution of 1200 dpi (PULSTEK, OpticPro ST28) or photographed using a camera stand mounted with a digital SLR camera (Canon EOS 5D). Germination of 100 seeds per replicate was evaluated on digital images. Seeds were considered germinated when the radicle protruded from the seed coat.

[2] = test system: Brassica oleracea cv Botrytis; test: Standard paper germination test for Brassica (tropical cauliflower seeds, 20° C. in the dark); format: in vivo; conditions: tropical cauliflower 3C150 (seed batch 11B295), 25 μM; for Gmax (total germination): DMSO treatment = 31.3%
Experimental: The effect of compounds of Formula (I) on the germination of Brassica oleracea cv Botrytis or common cauliflower was tested on tropical types. […] Germination of a sensitive tropical type at 20° is stimulated by the presence of light.
The tropical seed batch tested was part of seed batches produced as basic seed (for maintenance of the parental line) and were processed accordingly.
Germination was assessed using the standard paper germination test for Brassica: Fifty seeds were placed on blue germination paper, which was moistened with the appropriate solutions, in closed oblong germination boxes. Each condition was tested in duplo. Germination boxes were placed in controlled germination cabinets with the appropriate temperature and light conditions. Germination of seeds was counted at regular intervals. Seeds were considered to be germinated when the radical had protruded the testa and endosperm (radical size approximately 1 mm). Germination kinetics were analyzed using the Germinator analysis tool in order to obtain the parameters: Gmax (maximum germination) and t50 (time needed to reach 50% of the Gmax). The Germinator analysis tool is an add-in in for excel developed by the University of Wageningen: Joosen, R. V. L., J. Kodde, et al. (2010). (“Germinator: A Software Package for High-Throughput Scoring and Curve Fitting of Arabidopsis Seed Germination.” The Plant Journal 62(1): 148-159.)
Test compounds were dissolved in DMSO at a concentration of 50 mM and stored at −20° C. The strigolactone analogue GR24 (commercially available as a racemic mixture of 2 diastereoisomers, referred to as “synthetic strigolactone GR-24” and first prepared by Johnson A. W. & all, Journal of the Chemical Society, Perkin Transactions 1, 1981, page 1734-1743) was included as positive control. Germination solutions were prepared by diluting the stock solutions with demineralized water till 25 μM. As control solutions demineralized water and a 0.05% v/v DMSO solution were used.

[3] = aqueous control (0.001% DMSO) = 0.2% germination
[4] = Table 3, preconditioned seeds of lot IN146, raceF, aqueous control (0.001% DMSO) = 0% germination
[5] = Table 4, preconditioned seeds of lot IN146, raceF, aqueous control (0.001% DMSO) = 0% germination
[6] = Table 5, preconditioned seeds of lot IN153, raceF, aqueous control (0.001% DMSO) = 0.2% germination
[7] = Table 6, preconditioned seeds of lot IN153, raceF, aqueous control (0.001% DMSO) = 0.8% germination

CC1=C[C@H](O/C=C2/C(=O)N[C@@H]3c4cccc(C#Cc5ccccc5)c4C[C@H]23)OC1=O (relative stereo) [Compound A6]
Germination %* at concentration of 0.001 mg I^−1 [1, 3]: 2.6%
Germination %* at concentration of 0.01 mg I^−1 [1, 3]: 40.2%
Germination %* at concentration of 0.1 mg I^−1 [1, 3]: 83.6%

C=CCc1cccc2c1C[C@@H]1/C(=C\O[C@H]3C=C(C)C(=O)O3)C(=O)N[C@H]21 (relative stereo) [Compound A1, (3aR*,8bS*, 5′R*)-5-allyl-3-[1-(4-Methyl-5-oxo-2,5-dihydro-furan-2-yloxy)-meth-(E)-ylidene]-3,3a,4,8b-tetrahydro-1H-indeno[1,2-b]pyrrol-2-one]
Germination % at concentration of 0.001 mg I^−1 [1, 4]: 85.8%
Germination % at concentration of 0.01 mg I^−1 [1, 4]: 82.0%
Germination % at concentration of 0.1 mg I^−1 [1, 4]: 82.6%

CC1=CC(OC=C2C(=O)NC3c4cccc(-c5nccs5)c4CC23)OC1=O (mixture of isomers) [Compound A12]
Germination %* at concentration of 0.001 mg I^−1 [1, 3]: 13.0%
Germination %* at concentration of 0.01 mg I^−1 [1, 3]: 7.0%
Germination %* at concentration of 0.1 mg I^−1 [1, 3]: 26.8%

CC1=CC(OC=C2C(=O)NC3c4cccc(-c5cccnc5)c4CC23)OC1=O (mixture of isomers) [Compound A11]
Germination %* at concentration of 0.001 mg I^−1 [1, 3]: 30.0%
Germination %* at concentration of 0.01 mg I^−1 [1, 3]: 65.6%
Germination %* at concentration of 0.1 mg I^−1 [1, 3]: 90.8%

COC(=O)c1ccc2c(c1)C1NC(=O)/C(=C/O[C@H]3C=C(C)C(=O)O3)[C@H]1C2 (stereo in doubt) [Compound A3, methyl(3E,3aR,8bR)-3-[[(2R)-4-methyl-5-oxo-2H-furan-2-yl]oxymethylene]-2-oxo-1,3a,4,8b-tetrahydroindeno[1,2-b]pyrrole-7-carboxylate]
Germination % at concentration of 0.001 mg I^−1 [1, 5]: 85.8%
Germination % at concentration of 0.01 mg I^−1 [1, 5]: 82.0%
Germination % at concentration of 0.1 mg I^−1 [1, 5]: 82.6%
stimulation (extra germination compared to the DMSO treatment, expressed as percentage of the DMSO treatment) [2]: 36.7%
Gmax (total germination) [2]: 43.0%

CC1=CC(OC=C2C(=O)NC3c4cccc(-c5ccccc5)c4CC23)OC1=O (mixture of isomers) [Compound A9]
Germination %* at concentration of 0.001 mg I^−1 [1, 3]: 53.4%
Germination %* at concentration of 0.01 mg I^−1 [1, 3]: 84.4%
Germination %* at concentration of 0.1 mg I^−1 [1, 3]: 76.8%

COCC#Cc1cccc2c1C[C@@H]1/C(=C\O[C@H]3C=C(C)C(=O)O3)C(=O)N[C@H]21 (relative stereo) [Compound A5]
Germination % at concentration of 0.001 mg I^−1 [1, 6]: 79.0%
Germination % at concentration of 0.01 mg I^−1 [1, 6]: 91.4%
Germination % at concentration of 0.1 mg I^−1 [1, 6]: 99.2%

C#Cc1cccc2c1C[C@@H]1/C(=C\O[C@H]3C=C(C)C(=O)O3)C(=O)N[C@H]21 [Compound A2, (3E,3aR,8bS)-5-ethynyl-3-[(4-methyl-5-oxo-2H-furan-2-yl)oxymethylene]-1,3a,4,8b-tetrahydroindeno[1,2-b]pyrrol-2-one]
Germination % at concentration of 0.001 mg I^−1 [1, 4]: 85.8%
Germination % at concentration of 0.01 mg I^−1 [1, 4]: 82.0%
Germination % at concentration of 0.1 mg I^−1 [1, 4]: 86.2%

CC1=CC(OC=C2C(=O)NC3c4cccc(-c5ccncc5)c4CC23)OC1=O (mixture of isomers) [Compound A10]
Germination %* at concentration of 0.001 mg I^−1 [1, 3]: 11.2%
Germination %* at concentration of 0.01 mg I^−1 [1, 3]: 18.0%
Germination %* at concentration of 0.1 mg I^−1 [1, 3]: 24.0%

CC1=C[C@H](O/C=C2/C(=O)N[C@@H]3c4c(cccc4C4CC4)C[C@H]23)OC1=O [Compound A8, (3E,3aR,8bS)-8-cyclopropyl-3-[[(2R)-4-methyl-5-oxo-2H-furan-2-yl]oxymethylene]-1,3a,4,8b-tetrahydroindeno[1,2-b]pyrrol-2-one]
Germination %* at concentration of 0.001 mg I^−1 [1, 3]: 81.2%
Germination %* at concentration of 0.01 mg I^−1 [1, 3]: 88.5%
Germination %* at concentration of 0.1 mg I^−1 [1, 3]: 86.8%

CC#Cc1cccc2c1C[C@@H]1/C(=C\O[C@H]3C=C(C)C(=O)O3)C(=O)N[C@H]21 (relative stereo) [Compound A4]
Germination % at concentration of 0.001 mg I^−1 [1, 6]: 97.6%
Germination % at concentration of 0.01 mg I^−1 [1, 6]: 94.4%
Germination % at concentration of 0.1 mg I^−1 [1, 6]: 98.2%

C=Cc1cccc2c1C[C@@H]1/C(=C\O[C@H]3C=C(C)C(=O)O3)C(=O)N[C@H]21 (relative stereo) [Compound A7]
Germination % at concentration of 0.001 mg I^−1 [1, 7]: 96.4%
Germination % at concentration of 0.01 mg I^−1 [1, 7]: 96.8%
Germination % at concentration of 0.1 mg I^−1 [1, 7]: 95.4%

CC1=C[C@H](O/C=C2/C(=O)O[C@@H]3c4ccccc4C[C@H]23)OC1=O [GR24, reference compound]
Germination % at concentration of 0.001 mg I^−1 [1, 6]: 88.6%
Germination % at concentration of 0.01 mg I^−1 [1, 6]: 96.0%
Germination % at concentration of 0.1 mg I^−1 [1, 6]: 93.8%
Germination % at concentration of 0.001 mg I^−1 [1, 7]: 79.8%
Germination % at concentration of 0.01 mg I^−1 [1, 7]: 93.2%
Germination % at concentration of 0.1 mg I^−1 [1, 7]: 96.8%
Germination %* at concentration of 0.001 mg I^−1 [1, 3]: 60.8%
Germination %* at concentration of 0.01 mg I^−1 [1, 3]: 83.2%
Germination %* at concentration of 0.1 mg I^−1 [1, 3]: 90.6%
stimulation (extra germination compared to the DMSO treatment, expressed as percentage of the DMSO treatment) [2]: 140.0%
Gmax (total germination) [2]: 73.0%

CC1=CC(OC=C2C(=O)NC3c4cccc(-c5ccco5)c4CC23)OC1=O (mixture of isomers) [Compound A13]
Germination %* at concentration of 0.001 mg I^−1 [1, 3]: 13.4%
Germination %* at concentration of 0.01 mg I^−1 [1, 3]: 66.4%
Germination %* at concentration of 0.1 mg I^−1 [1, 3]: 90.0%
